Results published in US12013390B2, “EBIV nucleic acid composition and application thereof” (Wuhan Institute of Virology, Chinese Academy of Sciences, priority 2022, dated 2024).

Tested on: BHK-21 cells
Assay: Cell viability per well (percentage of cells remaining) observed under a microscope in the drug screening test
Assay type: cell-based, hamster
Settings: infected BHK-21 cells with drug, 36 hours
Protocol: (1) A 96-well plate for BHK-21 cells was prepared. The cells were planked at 10^4 cells/well. The plate was cultured in a cell incubator with a temperature of 37° C. and a CO2 concentration of 5%. The drug screening test was conducted when the cells grew to 40-50%. The drug to be tested was dissolved in dimethyl sulfoxide. Then the drug was diluted to 100 μM with DMEM medium containing 2% FBS. After that, the drug was subjected to serial 2-fold dilution to obtain the dilution gradient with the concentration of 100 μM, 50 μM, 25 μM, 12.5 μM, 6.25 μM, 3.125 μM, and 1.5625 μM, respectively (the concentration of DMSO in the diluted drug shall be <0.1%).
(2) The original culture medium was removed from the 96-well plate. The virus was inoculated into the 96-well plate at an MOI of 0.01 and a volume of 100 μL/well. At the same time, the diluted drugs to be tested were respectively added into the same 96-well plate at 100 μL/well and mixed well with the virus solution. The plate was incubated in a cell incubator with a temperature of 37° C. and a CO2 concentration of 5% for 36 hours before detection.
(4) Cell viability per well (and the percentage of cells remaining per well) was observed under a microscope and the half-maximal effect concentration (EC50) of the drug was calculated using GraphPad Prism 9 software and an EC50 graph was plotted.

With `CC(C)=CCC(OC(=O)C=C(C)C)C1=CC(=O)c2c(O)ccc(O)c2C1=O` (stereo not drawn) [Beta, beta-dimethyl acryl shikonin] the Cell viability was 70%.

For `C[C@@]12C(=O)OC(=O)[C@]1(C)[C@H]1CC[C@@H]2O1` [Cantharidin], the Cell viability was 50%.

Work on `C[C@H](CCC(=O)O)[C@H]1CC[C@H]2[C@@H]3[C@H](O)C[C@@H]4C[C@H](O)CC[C@]4(C)[C@H]3CC[C@]12C` [Chenodeoxycholic acid, reference compound] yielded a Cell viability of 70%.

Compound `COc1ccc(-c2cc(=O)c3c(O)cc(O[C@@H]4O[C@H](CO[C@@H]5O[C@@H](C)[C@H](O)[C@@H](O)[C@H]5O)[C@@H](O)[C@H](O)[C@H]4O)cc3o2)cc1O` [Diosmin, reference compound] has a Cell viability of 100% and a Cell viability (listed as diosmin) of 100%.

`Oc1cc(O)c2c(c1)O[C@H](c1cc(O)c(O)c(O)c1)[C@H](O)C2` [Epigallocatechol] showed a Cell viability of 0%.

Work on `CC(C)=CCc1c(O)ccc(C(=O)/C=C/c2ccc(O)cc2)c1O` [Isobavachalcone] yielded a Cell viability of 30%.

`CC(C)=CCc1cc2c(cc1O)oc(=O)c1c3ccc(O)cc3oc21` [Psoralidin] gave a Cell viability of 50%.

With `C=C[C@H]1[C@H](O[C@@H]2O[C@H](CO)[C@@H](O)[C@H](O)[C@H]2O)OC=C(C(=O)OC)[C@H]1CC(=O)O` [Secoxyloganin] the Cell viability was 100% and the Cell viability (listed as secoxyloganin) was 100%.

Clinodiside Aogenin A gave a Cell viability of 100% and a Cell viability (listed as clinodiside A) of 100%.
